Results reported in US20040209907A1, “Formulation and methods for the treatment of thrombocythemia” (priority 2003, published 2004).
Several values for one entry are separate records, joined by “and”; a condition that tells them apart may be missing. Equal entries are not always repeated. Where two headings read alike, the source gives them in different places.

What was measured:
PDE III = PDE III activity of anagrelide and metabolite A; format: biochemical
Experimental: Inhibition of PDE III, which is present in myocardium, causes an increase in both the force and rate of cardiac contractility. These are undesirable side effects for a platelet reducing agent.
The PDE III activity of both anagrelide and metabolite A was evaluated by standard methods.

platelet = test: Therapeutic platelet lowering action
[1] = dog, in vivo
Experimental: (§1) A study was conducted in a large group of dogs comparing metabolite A with the standard reference inotrope milrinone.

[2] = Cardiovascular study in dogs comparing metabolite A with milrinone
Experimental: as §1

[3] = Plasma levels of anagrelide and metabolite A after oral, intra-venous and transdermal anagrelide in the mini-pig; format: in vivo; settings: for AUC / Cmax: mini-pig n=3, plasma analyte = label
Experimental: The plasma level of anagrelide and metabolite A were measured in a mini-pig study following oral, intra-venous and transdermal administration of anagrelide.
The comparative bioavailability of anagrelide following oral administration of 1 mg or the dermal application of a saturated solution to ˜45 cm2 surface area of the back was assessed in three minipigs. Standard AgrylinR capsules (2×0.5 mg) were administered orally to fasted animals, whereas the dermal formulation was a saturated solution of the drug in 5% (v/v) oleic acid in propylene glycol.
Plasma concentrations of anagrelide and its metabolites were determined by a validated LC-MS/MS assay. Pharmacokinetic parameters were calculated by non-compartmental methods using WinNonlin.
Studies in the Mini-Pig (n=3)

[4] = Pharmacokinetics in healthy male volunteers after a single dose of anagrelide; settings: healthy male volunteers N=38; single 1 mg oral dose of anagrelide; analyte = label
Text: Summary of mean Pharmacokinetic Parameters of Anagrelide in Volunteers after a Single Dose of the Drug

CD34+ cells = test: Megakaryocyte number in thrombopoietin-expanded CD34+ cell cultures; format: cell-based; settings: for effect on number of megakaryocytes: day-8 cultures; for number of megakaryocytes: day-12 cultures
Text: Cells were harvested for analysis after 4 or 8 days of the initiation of drug treatment (day-8 and day-12 cultures, respectively). As shown in FIG. 2 in day-8 cultures no effect of anagrelide could be detected.

[5] = Permeation of anagrelide from saturated solutions through human epidermis (Franz-type diffusion cells); format: in vitro ADME
Experimental: Saturated Solutions of Anagrelide were Prepared in:
1. 5% lauryl alcohol in isopropyl myristate (LA in IPM)
2. 2% oleic acid in propylene glycol (OA in PG)
3. 0.5% oleic acid in propylene glycol
4. 5% glyceryl monooleate in isopropyl myristate (GMO in IPM)
5. 5% glyceryl laurate in isopropyl myristate (GLA in IPM)
9. Isopropyl myristate (IPM)
11. 5% oleic acid (OA) in propylene glycol (PG)
12. 70:30 (v/v) dimethyl sulfoxide: propylene glycol
An analytical method using HPLC with UV detection was established for anagrelide. Six point calibration curves were generated over the range 0.2-2 μg/ml were generated for each analytical run and the precision confirmed on each occasion by the making at least 7 replicate injections of the highest standard. Details of the equipment and methods used are given below.
Human epidermis was prepared by the heat separation technique (A. M. Kligman and E Christophers, Preparation of isolated sheets of human stratum corneum. Arch Dermatol., vol. 88, 70-73 (1963). Water was heated to 60° C. on a hotplate and the skin was immersed in the water at this temperature for 1 minute. The skin was then removed from the water and the epidermis carefully peeled off using blunt tweezers. Care was taken not to introduce any holes in this process. The epidermal tissue was placed on a filter paper stratum corneum uppermost. The samples were then stored in freezer.
Franz-type horizontal glass diffusion cells were used. The receptor medium was thermostatted at 37° C., to represent body temperature. There will be a temperature gradient across the membrane and applied solution, but this should simulate ‘in use’ conditions. Under these conditions the surface temperature of the skin was 32° C.
The skin samples were thawed overnight before use. The epidermal membranes were cut to size and were placed between the two halves of the cells. High vacuum grease was used to seal the two compartments. The cell was clamped using a metal holder. The receptor arm was closed using glass caps to prevent evaporation. The donor compartment was occluded to prevent any donor solution evaporation
The receptor medium was first introduced and equilibrated for 1 h. 1 mL of the saturated solution with excess drug was applied in the donor compartment. Excess drug was used to ensure there is no depletion of the drug during the course of the experiment. The starting time was taken as the time at which the solutions were applied.
At set sampling points (12, 24, 30, 36 and 48 hours), 200 μL of the receptor phase from each diffusion cell was removed for analysis of the anagrelide and replaced by an equivalent of fresh receptor phase solution pre-thermostatted to 37° C.
For each solution, six replicates were tested. A control (without any formulation applied in the donor compartment) was also examined.

[6] = as above; format: in vitro ADME; settings: for Amt permeated at 24 hours: human epidermis
[7] = Pharmacokinetics in patients with myeloproliferative disease at steady state; settings: patients N=18, multiple dosing, analyte = label
[8] = anagrelide Dermal, saturated solution in 5% OA in PG, ~45 cm2, 24 h
[9] = anagrelide Intra-venous 1 mg/propylene glycol

## O=C1NC2=Nc3ccc(Cl)c(Cl)c3CN2C1O (stereo not drawn) [Metabolite A]
PDE III; earlier in vitro studies
  potency relative to anagrelide as an inhibitor of PDEIII: 40 fold
PDE III; standard methods
  PDE III potency relative to anagrelide: 40 ×
PDE III; statement
  potency as a cardiovascular agent relative to anagrelide: ~40 times
platelet
  therapeutic platelet lowering action relative to anagrelide: equipotent
[1]
  effect on (+)dP/dt max (a measure of contractility): well sustained and largely dose-dependent
  maximum decrease in mean blood pressure: about 30 mmHg
  mean maximum increase in heart rate: ~66 b.p.m.
  potency relative to milrinone in decreasing mean blood pressure: 10 ×

## Cc1[nH]c(=O)c(C#N)cc1-c1ccncc1 [milrinone]
[2]
  effect on (+)dP/dt max (a measure of contractility): immediate, dose-dependent increases in (+)dP/dt max, but they were not well sustained
[2]; dose-dependent
  maximum decrease in mean blood pressure: about 30 mmHg
  mean maximum increase in heart rate: ~76 b.p.m.

## O=C1CN2Cc3c(ccc(Cl)c3Cl)N=C2N1 [Anagrelide]
[3]; [8]
  AUC: 10.8 ng·h/mL
  Cmax: 0.69 ng/mL
[3]; [9]
  AUC: 50.7 ng·h/mL
  Cmax: 87.1 ng/mL
[3]; anagrelide Oral 1 mg/capsule
  AUC: 10.3 ng·h/mL
  Cmax: 1.45 ng/mL
[3]; mini-pig, dermal application
  decline in concentrations post-peak prior to wash-off at 24 h: 50%
[3]; mini-pig, dermal saturated solution in 5% oleic acid in propylene glycol, estimated
  average dermal flux: 197 ng/cm2/h
[3]; mini-pig, dermal versus oral 1 mg
  maximum plasma concentration lower following dermal application versus oral: 50%
[3]; mini-pig, oral 1 mg versus dermal saturated solution
  exposure to anagrelide, dermal versus oral route: comparable exposure
[4]
  AUC0-inf ± RSD (%): 11.1 ± 37.6 ng·h/mL
  Cmax ± RSD (%): 4.99 ± 74.4 ng/mL
  Tmax ± RSD (%): 1.3 ± 53.8 h
  t1/2 ± RSD (%): 1.5 ± 49.8 h
CD34+ cells; continuous exposure to 4 ng/ml anagrelide (~13 nM)
  effect on number of megakaryocytes: no effect
CD34+ cells; continuous exposure to 4 ng/ml anagrelide (~13 nM), p=0.038, n=3
  number of megakaryocytes: 77±5 % of control
CD34+ cells; single dose of 40 ng/ml anagrelide (~133 nM)
  effect on number of megakaryocytes: no effect
CD34+ cells; single dose of 40 ng/ml anagrelide (~133 nM), p=0.015, n=3
  number of megakaryocytes: 68±4 % if control
[5]; saturated solution in 2% OA in PG
  Amt permeated at 24 hours: 8.9 μg/cm^2
[5]; saturated solution in 5% GLA in IPM
  Amt permeated at 24 hours: 5.2 μg/cm^2
[5]; saturated solution in 5% GMO in IPM
  Amt permeated at 24 hours: 5.7 μg/cm^2
[5]; saturated solution in 5% LA in IPM
  Amt permeated at 24 hours: 0.5 μg/cm^2
[5]; saturated solution in 5% OA in PG
  Amt permeated at 24 hours: 4.4 μg/cm^2
[5]; saturated solution in IPM (isopropyl myristate)
  Amt permeated at 24 hours: 1.5 μg/cm^2
[6]; calculated for transdermal delivery in man
  Cav from the maximum likely flux rate through human skin: 3 to 4 ng/mL
[6]; saturated solution in 0.5% OA in PG
  Amt permeated at 24 hours: 0.5 μg/cm^2
[6]; saturated solution in 70:30 DMSO:PG ('gold standard')
  Amt permeated at 24 hours: 8.4 μg/cm^2
[6]; saturated solution in 70:30 DMSO:PG ('gold standard'), listed as anagrelide
  Amt permeated at 24 hours: 8.41 μg/cm^2
[6]; saturated solution in Ethanol
  Amt permeated at 24 hours: 0.9 μg/cm^2
[6]; saturated solution in Formulation 1 (Labrasol, Plurol Oleique, Labrafac Lipophile, propylene glycol)
  Amt permeated at 24 hours: 2.1 μg/cm^2
[6]; saturated solution in Formulation 2 (Labrafil M 1944CS, Labrafac Lipophile, Labrasol, Plurol oleique, water)
  Amt permeated at 24 hours: 1.5 μg/cm^2
[6]; saturated solution in Glycerol
  Amt permeated at 24 hours: 0.04 μg/cm^2
[6]; saturated solution in PG (propylene glycol)
  Amt permeated at 24 hours: 0.5 μg/cm^2 and 0.54 μg/cm^2
[6]; saturated solution in PG (propylene glycol), listed as anagrelide
  Amt permeated at 24 hours: 0.5 μg/cm^2
[6]; saturated solution in Transcutol
  Amt permeated at 24 hours: 0.0 μg/cm^2 and 0 μg/cm^2
[6]; saturated solution in Triacetin
  Amt permeated at 24 hours: 0.0 μg/cm^2 and 0 μg/cm^2
[7]
  AUC0-t ± RE (AUC over dosage interval): 18.64(5.28) ng · h/mL
  Cmax ± RE: 5.31(1.33) ng/mL
  Tmax ± RE: 2.00(0.32) hours
  t1/2 ± RE: 2.89(0.73) hours
